What was measured:
[1] = dosed orally; cited from earlier work
HEK293 cells = experiment: HEK293 cytotoxicity assay (CC50, CellTiterGlo); type: cell-based, human
Source text: Some exemplary assays and examples for assessing therapeutic efficacy, e.g., anticancer effects, of exemplary compounds of the invention are described herein or well known in the art. HEK293 is a human kidney cell line, and efficacy on HEK293 is considered to be predictive of usefulness for therapeutic treatment.
HEK293 cells were obtained from American Type Culture Collection (ATCC) (Rockville Maryland). Cells were maintained in Dulbecco's modified Eagle's medium (DMEM) (Invitrogen, Carlsbad, CA) with 10% fetal bovine serum (FBS), 10 mM HEPES and 1 mM sodium pyruvate. Cells were grown at 37° C. in a humidified incubator with a gas phase of 5% C02. Cells were grown for 24 hours in a Tripleflask (NUNC) to ˜95% confluence and then resuspended for dispensing at 125,000 cells/mL of DMEM, 10% FBS, 10 mM Hepes and 1 mM sodium pyruvate.
HEK293 cells were seeded in 96 well microtiter plates at 10000 cells/well. After 24 hours of incubation an equal volume of fresh media containing test compounds at given concentrations was added. Plates were then incubated and cells were allowed to proliferate for 48 hours at 37° C., 95% humidity, and 5% C02. […] A solution of Promega CellTiterGlo (100 microliters) was added by Thermo Combi and the plates were allowed to sit for 10 minutes before reading on a Perkin-Elmer EnVision with US LUM settings for 0.1 sec per well. […]

Question: Which bioavailability [1] does the source give for `NC(=O)c1ncn([C@@H]2O[C@H](CO)[C@@H](O)[C@H]2O)c1N` [AICAR, 5-amino-1-D-ribofuranosyl-1H-imidazole-4-carboxamide] here?
Answer: Its bioavailability is “very low”.

Question: Which “potency relative to AICAR on HEK293 cells” value (HEK293 cells; ratio of potency (CC50) versus AICAR) does the source give for `NC(=O)c1ncn([C@@H]2O[C@H](COP(=O)(O)Oc3ccc([N+](=O)[O-])cc3)[C@@H](O)[C@H]2O)c1N` [SB00039] here?
Answer: Its value is “roughly 100 times”.

Question: Which “activity on HEK293 cells (CC50 assay)” value (HEK293 cells; at 500 uM) does the source give for `COP(=O)(OC)OC[C@H]1O[C@@H](n2cnc(C(N)=O)c2N)[C@H](O)[C@@H]1O` [SB00024] here?
Answer: Its value is “inactive”.
